Source: patent US9597407B2, “Targeted antimicrobial moieties” (C3 Jian, Inc., priority 2009, dated 2017)
Entries after “also recorded” stand apart in the source; their conditions may differ.

Tests used:
microorganisms [1] = experiment: Morphology, biofilm and growth disruption by peptides (Table 5); format: cell-based; set-up: key: A: Peptide aggregates; B: Less hyphal formation; Clumps; Diffuse clumps and small polyps; F: Diffuse growth; H: Thin; I: Growth inhibition; Microcolony formation; Rippled; Small polyps; Thick; W: Halo formation on top, microlonies on bottom
Text: In certain embodiments peptides that induce alterations in phenotype or other biological activities can also be used as antimicrobial effector moieties.

bacteria = experiment: Binding of targeting peptides to microorganisms (Table 3); details: preferably 1x PBS; for Target(s) (microorganisms bound by the targeting peptide) / Target(s) (microorganism bound by the targeting peptide): peptide binding in aqueous buffers that varied depending on peptide solubility
microorganisms [2] = experiment: Peptide activities: binding, antimicrobial, growth or phenotype altering (Table 8)
Text: In certain embodiments, peptides described herein can have multiple activities. Thus for example, a peptide can have both binding/targeting activity and antimicrobial activity. Such peptides can be used, e.g., in a chimeric construct, for any or all of these properties. Thus, for example, a peptide designated “B” in Table 8 can be used as a targeting peptide. If it is also designated G or M it can also be used for antimicrobial activity.

[3] = microorganism bound by the targeting peptide, binding in aqueous buffers chosen by peptide solubility
[4] = microorganism the targeting peptide binds, binding in aqueous buffers that varied with peptide solubility

PF-472 (MHISHLLDEVEQTEREKAVNVLENMNGNVI; Peptide with targeting and/or antimicrobial activity)
Organism, effect (morphology, biofilm and growth disruption) (microorganisms [1]; C. jejuni): C. jejuni (R) | Organism, effect (morphology, biofilm and growth disruption) (microorganisms [1]; E. faecalis): E. faecalis (A) | Organism, effect (morphology, biofilm and growth disruption) (microorganisms [1]; MRSA): MRSA (C) | Organism, effect (morphology, biofilm and growth disruption) (microorganisms [1]; S. pneumoniae): S. pneumoniae (R) | Target(s) (microorganisms bound by the targeting peptide) (bacteria): S. epidermidis and E. coli and P. aeruginosa and C. albicans and MRSA and S. pneumoniae and E. faecalis and C. jeikeium | Activities (microorganisms [2]): G B

PF-757 (chain 1 PQAISSVQQNA; chain 2 PQAISSVQQNA; Peptide with targeting and/or antimicrobial activity)
Organism, effect (morphology, biofilm and growth disruption) (microorganisms [1]; S. pneumoniae): S. pneumoniae (H) | Target(s) (microorganism bound by the targeting peptide) (bacteria): M. luteus and C. albicans and MRSA | Activities (microorganisms [2]): G B

PF-378 (ESAKSNLNFLMQEEWALFLLL; Peptide with targeting and/or antimicrobial activity)
Organism, effect (microorganisms [1]; MRSA): MRSA (M) | Organism, effect (microorganisms [1]; S. epidermidis): S. epidermidis (M) | Target(s) (bacteria; [3]): B. subtilis; also recorded: B. fragilis; also recorded: E. coli; also recorded: P. aeruginosa; also recorded: C. jeikeium | Activities (microorganisms [2]): G B

PF-034 (EPKKKHFPKMESASSEP; Peptide with targeting and/or antimicrobial activity)
Organism, effect (microorganisms [1]; S. epidermidis): S. epidermidis (A) | Target(s) (bacteria; [4]): M. luteus | Activities (microorganisms [2]): G B

PF-058 (FADQSQDNA; Peptide with targeting and/or antimicrobial activity)
Organism, effect (microorganisms [1]; MRSA): MRSA (M) | Target(s) (bacteria; [4]): S. epidermidis and M. luteus and E. coli and C. albicans and MRSA and C. jeikeium and C. jejuni | Activities (microorganisms [2]): G B

PF-C095 (LLALNMNEDTYYFELFFIFDNQNKKWLIFDLKERG; Peptide with targeting and/or antimicrobial activity)
Organism, effect (morphology, biofilm and growth disruption) (microorganisms [1]; F. nucleatum): F. nucleatum (T) | Target(s) (microorganism bound by the targeting peptide) (bacteria): A. naeslundii; also recorded: F. nucleatum; also recorded: P. gingivalis; also recorded: S. mutans | Activities (microorganisms [2]): G B

PF-466 (VRKSDQ; Peptide with targeting and/or antimicrobial activity)
Organism, effect (morphology, biofilm and growth disruption) (microorganisms [1]; S. pneumoniae): S. pneumoniae (H) | Target(s) (microorganisms bound by the targeting peptide) (bacteria): MRSA and C. jeikeium and C. jejuni | Activities (microorganisms [2]): G B

PF-360 (MEQKVKVIFVPRSKPDNQLKTFVSAVLFKA; Peptide with targeting and/or antimicrobial activity)
Organism, effect (microorganisms [1]; E. coli): E. coli (C) | Organism, effect (microorganisms [1]; MRSA): MRSA (H) | Organism, effect (microorganisms [1]; S. epidermidis): S. epidermidis (S) | Target(s) (bacteria; [3]): S. epidermidis; also recorded: B. subtilis; also recorded: E. coli; also recorded: P. aeruginosa; also recorded: C. albicans; also recorded: E. faecalis; also recorded: C. jeikeium; also recorded: C. jejuni | Activities (microorganisms [2]): G B

PF-385 (MIKKSILKIKYYVPVLISLTLILSA; Peptide with targeting and/or antimicrobial activity)
Organism, effect (microorganisms [1]; E. coli): E. coli (A) | Target(s) (microorganisms bound by the targeting peptide) (bacteria): S. epidermidis; also recorded: E. coli; also recorded: P. aeruginosa; also recorded: C. albicans; also recorded: E. faecalis | Activities (microorganisms [2]): G B

PF-043 (MIKNETAYQMNELLVIRSAYAK; Peptide with targeting and/or antimicrobial activity)
Organism, effect (microorganisms [1]; C. jeikeium): C. jeikeium (A) | Organism, effect (microorganisms [1]; M. luteus): M. luteus (C) | Organism, effect (microorganisms [1]; MRSA): MRSA (R) | Organism, effect (microorganisms [1]; S. epidermidis): S. epidermidis (D) | Target(s) (bacteria; [4]): M. luteus; also recorded: C. jejuni | Activities (microorganisms [2]): G B

PF-066 (IKGTVKAVDETTVVITVNGHGTELTFEKPAIKQVDPS; Peptide with targeting and/or antimicrobial activity)
Organism, effect (microorganisms [1]; MRSA): MRSA (S) | Target(s) (bacteria; [4]): M. luteus; also recorded: E. coli; also recorded: C. jeikeium | Activities (microorganisms [2]): G B
